# Source: PubChem BioAssay AID651878 (Vanderbilt Specialized Chemistry Center, 2012)
# Calls of active or inactive are those of the source.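 The calls were made as follows: active = Positive modulators of the M5 receptor in a calcium signal test, half-maximal potency under 10 µM; inactive = the rest.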
# Biological target: Muscarinic acetylcholine receptor M5 (Homo sapiens) (UniProt P08912)
# Assay: potentiation of ACh response at human M5 – cell-based, concentration-response curve, dose response (AID 651878)
# Details: CHO-K1 hM5, Fluo-4 calcium flux, ACh EC20 potentiation
# Sequence of Muscarinic acetylcholine receptor M5 (Homo sapiens) (P08912 whole entry, looked up): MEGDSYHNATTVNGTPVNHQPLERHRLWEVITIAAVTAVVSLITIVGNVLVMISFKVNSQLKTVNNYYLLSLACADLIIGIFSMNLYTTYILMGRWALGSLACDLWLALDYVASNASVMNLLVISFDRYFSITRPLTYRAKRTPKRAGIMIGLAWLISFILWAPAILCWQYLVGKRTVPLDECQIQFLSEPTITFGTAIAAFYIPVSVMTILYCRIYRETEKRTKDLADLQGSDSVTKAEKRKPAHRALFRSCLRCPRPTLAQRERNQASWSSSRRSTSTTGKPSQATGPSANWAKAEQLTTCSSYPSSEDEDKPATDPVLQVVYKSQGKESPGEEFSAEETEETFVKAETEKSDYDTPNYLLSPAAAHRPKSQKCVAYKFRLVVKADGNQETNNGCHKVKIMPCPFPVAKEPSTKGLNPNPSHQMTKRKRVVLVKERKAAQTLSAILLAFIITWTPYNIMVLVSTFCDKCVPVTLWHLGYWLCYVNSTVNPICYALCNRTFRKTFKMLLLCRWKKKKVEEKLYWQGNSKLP
row,Structure (SMILES),EC50 [nM]
1,COc1ccc(CN2C(=O)C(O)(C[N+](=O)[O-])c3cc(OC(F)(F)F)ccc32)cc1 (configuration not stated),1380
2,COc1ccc(CN2C(=O)C(O)(c3ccc(F)nc3)c3cc(OC(F)(F)F)ccc32)cc1 (configuration not stated),2190

# Same assay, conditions: CHO-K1 hM5, Fluo-4 calcium flux, ACh EC20 potentiation; at 31.6 µM (top of the series)
row,% ACh max response,Structure (SMILES)
1,inactive,COc1ccc(CN2C(=O)C(CO)(CO)c3cc(OC(F)(F)F)ccc32)cc1
2,inactive,COc1ccc(CN2C(=O)C3(COC3)c3cc(OC(F)(F)F)ccc32)cc1

# Further lines, the compound ahead of its results:
row,Structure (SMILES),% ACh max response
1,COc1ncc(-c2ccc(CN3C(=O)C(=O)c4cc(OC(F)(F)F)ccc43)cc2)cn1,74.4%
2,COc1ccc(CN2C(=O)C(O)(c3ccc(N(C)C)nc3)c3cc(OC(F)(F)F)ccc32)cc1 (configuration not stated),inactive
3,COc1ccc(-c2ccc(CN3C(=O)C(=O)c4cc(OC(F)(F)F)ccc43)cc2)cn1,71.9%
